Where two headings read alike, the source gives them in different places.
How the values were obtained:
rubella RA27/3 virus = assay: microbe, parasite or virus in culture; assay type: cell-based; conditions: for activity against rubella in A549 cells: dose-response; for inhibition of infection in primary screen: 1 µM, compared with vehicle alone; for inhibition at 1 µM: Rubella virus, A549, read-out: inhibition of infection in primary screen
From the text: (§1) We developed a high-throughput, high-content, cell-based assay to monitor rubella virus infection of the human respiratory cell line A549, as the respiratory tract is infected in humans. […] We infected A549 cells with the rubella virus vaccine strain (RA27/3) and monitored infection using an antibody to the viral glycoprotein E1 (Fig. 1A) ([13]). […] To evaluate the utility of nanchangmycin as a positive control for our assay development, we performed a dose–response assay for nanchangmycin using automated fluorescent microscopy to quantify the cell number as a surrogate for cell viability and percent infection (Fig. 1A).
A549 cells were plated in 384 well plates at 3,000 cells/well, HBMEC were plated at 7,000 cells/well, or Jeg-3 cells were plated at 3,000 cells/well in 20 μL growth media. The next day, 50 nL of drugs were added to assay wells, yielding a final concentration of 1 µM. The positive control nanchangmycin (n = 32) and the negative control DMSO (n = 32) were spotted on each assay plate. […] HBMECs were spin-infected by centrifuging at 1,250×g for 1 h at 25°C. Cells were fixed at 48 h post infection (hpi) in 4% formaldehyde/phosphate-buffered saline (PBS) for 15 min at room temperature and then washed twice with PBS. Cells were blocked with blocking buffer [2% bovine serum albumin in PBS with 0.1% Triton X-100 (PBST)]) for 1 h and incubated with primary antibody (mouse antirubella E1, CDC, 1 μg/mL) overnight at 4°C. […] Cells were washed three times with PBST and imaged using ImageXpress Micro (Molecular Devices). Cells were imaged with a 10× objective capturing four sites per well. The total number of cells and the percentage of infected cells were measured using the MetaXpress 5.3.3 cell scoring module. The aggregated percent infection of the DMSO and 2 µM nanchangmycin control wells on each assay plate were used to calculate Z′-factors. Sample well infection was normalized to aggregated DMSO plate control wells and expressed as percentage of control (POC = [%Infection sample/Average %Infection DMSO] × 100) and Z-score (Z = [%Infection sample − Average %Infection DMSO]/Standard Deviation %Infection DMSO) in Spotfire (PerkinElmer). Candidate hits were selected as compounds with POC <40% and viability >60%, compared with vehicle control.
(§2) Drugs were purchased as powders from Selleckchem, MedchemExpress, and MedKoo and suspended in DMSO. Drugs were arrayed in 8-pt dose–response in 384 well plates. Infections were performed using the screening conditions. DMSO (n = 32) and 2 µM nanchangmycin (n = 16) were included on each validation plate as controls for normalization. Infection at each drug concentration was normalized to aggregated DMSO plate control wells and expressed as POC (POC = %Infection sample/Average %Infection DMSO cont). A nonlinear regression curve fit analysis (GraphPad Prism 8) was performed on POC infection and cell viability using log10 transformed concentration values to calculate IC50 values for infection and CC50 values for cell viability. SI was calculated as a ratio of the drug's CC50 and IC50 values (SI = CC50/IC50).

A549 cells [1] = assay: cell number (cell viability) in A549 cells, Hoechst 33342, automated microscopy; assay type: cell-based, human; conditions: for cell viability in primary screen: 1 µM
From the text: as §1
(§3) A549 cells were plated in 384 well plates at 3,000 cells/well, HBMEC were plated at 7,000 cells/well, or Jeg-3 cells were plated at 3,000 cells/well in 20 μL growth media. The next day, 50 nL of drugs were added to assay wells, yielding a final concentration of 1 µM. The positive control nanchangmycin (n = 32) and the negative control DMSO (n = 32) were spotted on each assay plate. One hour later, cells were infected with rubella virus at a multiplicity of infection (MOI) = 0.234 for A549s, MOI = 0.1 for HBMEC, MOI = 0.05 for Jeg-3 cells). […] HBMECs were spin-infected by centrifuging at 1,250×g for 1 h at 25°C. Cells were fixed at 48 h post infection (hpi) in 4% formaldehyde/phosphate-buffered saline (PBS) for 15 min at room temperature and then washed twice with PBS. Cells were blocked with blocking buffer [2% bovine serum albumin in PBS with 0.1% Triton X-100 (PBST)]) for 1 h and incubated with primary antibody (mouse antirubella E1, CDC, 1 μg/mL) overnight at 4°C. Cells were washed three times with PBST and incubated in secondary (1:1000 antimouse Alexa Fluor 488 and 5 μg/mL Hoechst 33342) for 1 h at room temperature. Cells were washed three times with PBST and imaged using ImageXpress Micro (Molecular Devices). Cells were imaged with a 10× objective capturing four sites per well. The total number of cells and the percentage of infected cells were measured using the MetaXpress 5.3.3 cell scoring module. The aggregated percent infection of the DMSO and 2 µM nanchangmycin control wells on each assay plate were used to calculate Z′-factors. Sample well infection was normalized to aggregated DMSO plate control wells and expressed as percentage of control (POC = [%Infection sample/Average %Infection DMSO] × 100) and Z-score (Z = [%Infection sample − Average %Infection DMSO]/Standard Deviation %Infection DMSO) in Spotfire (PerkinElmer). Candidate hits were selected as compounds with POC <40% and viability >60%, compared with vehicle control.
as §2

rubella virus [2] = assay: rubella virus infection of HBMEC, dose-response; assay type: cell-based; conditions: dose-response
Procedure: Rubella virus can infect diverse tissues in vivo, and viruses can show tissue-specific dependencies on host factors. […] First, we developed assays in human brain microvascular endothelial cells (HBMECs) as a model for endothelial cells. We again used nanchangmycin to optimize the assay (Fig. 3A and B).
as §3, §2

rubella virus [3] = assay: rubella virus infection of Jeg-3 cells, dose-response; assay type: cell-based; conditions: Jeg-3 cells, dose-response
Procedure: Since rubella can cause congenital infections, we next developed assays in the human trophoblast cell line Jeg-3.
as §3, §2

A549 cells [4] = assay: ATPLite assay of cytotoxicity in A549 cells; assay type: cell-based, human
From the text: To determine whether LY2090314 is targeting GSK-3 or potentially a different target, we tested two additional GSK-3 inhibitors, AZD2858 and CHIR99021. […] We also validated the PIKfyve inhibitor APY0201, known to block entry of viruses that use endosomal entry routes and found robust activity (SI = 102). […] All three of the NAMPT inhibitors identified in the screen (STF-118804, GMX1778, and daporinad) validated with high potency (SI > 500).

[5] = cell number (cell viability) in A549 cells, Hoechst 33342, automated microscopy; assay type: cell-based, human; conditions: human, A549 cells, 1 µM, compared with vehicle alone, read-out: cell viability in primary screen
From the text: as §1, §3, §2

Cc1c(-c2ccc(N3CCc4cccc(C(=O)Nc5nc6ccccc6s5)c4C3)nc2C(=O)O)cnn1CC12CC3CC(CC(C3)C1)C2 [A-1331852]
activity against rubella in A549 cells (rubella RA27/3 virus; A549 cells): little activity | toxicity in A549 cells (A549 cells [1]): significant toxicities

Cc1cccc(/C=N/Nc2cc(N3CCOCC3)n3nc(-c4ccncc4)cc3n2)c1 [APY0201]
selectivity index (SI = CC50/IC50) (rubella RA27/3 virus; A549 cells): 102 | activity against rubella in HBMEC (rubella virus [2]): showed activity | activity against rubella in Jeg-3 cells (rubella virus [3]): active

CN1CCN(S(=O)(=O)c2ccc(-c3cnc(N)c(C(=O)Nc4cccnc4)n3)cc2)CC1 [AZD2858]
activity against rubella in A549 cells (rubella RA27/3 virus; A549 cells): little activity

Cc1c[nH]c(-c2cnc(NCCNc3ccc(C#N)cn3)nc2-c2ccc(Cl)cc2Cl)n1 [CHIR99021]
activity against rubella in A549 cells (rubella RA27/3 virus; A549 cells): little activity

Cn1cc(C2=C(c3cccc(N)c3)C(=O)NC2=O)c2ccccc21 [CP21R7]
inhibition of infection in primary screen (rubella RA27/3 virus; A549 cells): > 60% | cell viability in primary screen (A549 cells [1]): > 60%

N#CN=C(NCCCCCCOc1ccc(Cl)cc1)Nc1ccncc1 [GMX1778]
IC50 (A549 cells [4]; Homo sapiens, A549, read-out: IC50 of ATP content depletion (ATPLite)): 20 nM | selectivity index (SI = CC50/IC50) (rubella RA27/3 virus; A549 cells): > 500 | inhibition at 1 µM (rubella RA27/3 virus): > 60% | viability at 48 h, 1 µM [5]: > 60% | activity against rubella in HBMEC (rubella virus [2]): showed activity | activity against rubella in Jeg-3 cells (rubella virus [3]): active

CCc1c(O)cc(O)c(C(=O)c2ccc(OCCN3CCOCC3)c(OC)c2)c1CC(=O)N(CCOC)CCOC.Cl [KW-2478]
inhibition of infection in primary screen (rubella RA27/3 virus; A549 cells): > 60% | cell viability in primary screen (A549 cells [1]): > 60%

CN1CCC(NC(=O)c2cc(-c3c(O)cc(O)cc3Oc3ccc([N+](=O)[O-])cc3)on2)CC1 [NMS-E973]
inhibition of infection in primary screen (rubella RA27/3 virus; A549 cells): > 60%

Cc1ccc(S(=O)(=O)Cc2nc(-c3ccc(C(=O)NCc4cccnc4)cc3)oc2C)cc1 [STF-118804]
IC50 (A549 cells [4]; A549 cells, read-out: IC50 of ATP content depletion (ATPLite)): 10 nM | inhibition of infection in primary screen (rubella RA27/3 virus; A549 cells): > 60% | cell viability in primary screen (A549 cells [1]): > 60% | activity against rubella in HBMEC (rubella virus [2]): showed activity | activity against rubella in Jeg-3 cells (rubella virus [3]): active

N#Cc1c(Oc2ccc(F)c(NC(=O)Cc3cccc(C(F)(F)F)c3)c2)ccc2nc(NC(=O)C3CC3)sc12 [TAK-632]
activity against rubella in A549 cells (rubella RA27/3 virus; A549 cells): little activity

C/C=C/C[C@@H](C)[C@@H](O)[C@H]1C(=O)N[C@@H](CC)C(=O)N(C)[C@H](C)C(=O)N(CC)[C@@H](C(C)C)C(=O)N[C@@H](C(C)C)C(=O)N(C)[C@@H](CC(C)C)C(=O)N[C@@H](C)C(=O)N[C@H](C)C(=O)N(C)[C@@H](CC(C)C)C(=O)N(C)[C@@H](CC(C)C)C(=O)N(C)[C@@H](C(C)C)C(=O)N1C [alisporivir]
activity against rubella in A549 cells (rubella RA27/3 virus; A549 cells): little activity

Cc1cccc(/C=N/Nc2cc(N3CCOCC3)nc(OCCc3ccccn3)n2)c1 [apilimod]
selectivity index (SI = CC50/IC50) (rubella RA27/3 virus; A549 cells): > 8 | activity against rubella in HBMEC (rubella virus [2]): showed activity | activity against rubella in Jeg-3 cells (rubella virus [3]): active

O=C(/C=C/c1cccnc1)NCCCCC1CCN(C(=O)c2ccccc2)CC1 [daporinad]
IC50 (A549 cells [4]; Homo sapiens, A549 cells, read-out: IC50 of ATP content depletion (ATPLite)): 10 nM | selectivity index (SI = CC50/IC50) (rubella RA27/3 virus; A549 cells): > 500 | inhibition at 1 µM (rubella RA27/3 virus): > 60% | viability at 48 h, 1 µM ([5]; A549 cells (infected with rubella virus RA27/3)): > 60% | activity against rubella in HBMEC (rubella virus [2]): showed activity | activity against rubella in Jeg-3 cells (rubella virus [3]): active

COc1c(C)c2c(c(O)c1C/C=C(\C)CCC(=O)O)C(=O)OC2 [mycophenolic acid]
selectivity index (SI = CC50/IC50) (rubella RA27/3 virus; A549 cells): 6 | toxicity in A549 cells (A549 cells [1]; human, 48 h): higher toxicity in A549 cells than in Jeg-3 cells | activity against rubella in HBMEC (rubella virus [2]): showed activity | activity against rubella in Jeg-3 cells (rubella virus [3]): active

CO[C@H]1CC[C@@H](O[C@H]2C[C@H]([C@]3(C)CC[C@]4(C[C@H](O)[C@@H](C)[C@@H]([C@@H](C)/C=C(\C)C(=O)[C@H](C)C[C@H](C)C(=O)O)O4)O3)O[C@]3(O[C@@H]([C@H]4O[C@@](O)(CO)[C@H](C)C[C@@H]4C)C[C@@H]3C)[C@@H]2C)O[C@@H]1C [nanchangmycin]
IC50 (rubella RA27/3 virus; A549 cells, 48 hpi, read-out: half-maximal inhibitory concentration (IC50), rubella virus infection): 30 nM | EC50 (rubella RA27/3 virus; A549 cells, MOI = 0.2, 48 hpi, read-out: EC50 (printed in Fig. 1B)): 30 nM | CC50 (A549 cells [1]; A549 cells, cell number, read-out: half-maximal cytotoxicity concentration (CC50)): 3000 nM | activity against rubella in Jeg-3 cells (rubella virus [3]): active

CC1(C)CCC(c2ccc(Cl)cc2)=C(CN2CCN(c3ccc(C(=O)NS(=O)(=O)c4ccc(N[C@H](CCN5CCOCC5)CSc5ccccc5)c(S(=O)(=O)C(F)(F)F)c4)cc3)CC2)C1 [navitoclax]
activity against rubella in A549 cells (rubella RA27/3 virus; A549 cells): little activity | toxicity in A549 cells (A549 cells [1]): significant toxicities

COC1=CC(c2cc3ccccc3[nH]2)=N/C1=C\c1[nH]c(C)cc1C [obatoclax]
activity against rubella in A549 cells (rubella RA27/3 virus; A549 cells): little activity | toxicity in A549 cells (A549 cells [1]): significant toxicities | activity against rubella in HBMEC (rubella virus [2]): showed activity | activity against rubella in Jeg-3 cells (rubella virus [3]): active

Reference: publication PMC10479830, “Nucleoside analogs NM107 and AT-527 are antiviral against rubella virus” (PNAS Nexus, 2023)
